Measurements published in ChEMBL document CHEMBL4138316, “Optimization of Isothiazolo[4,3- b]pyridine-Based Inhibitors of Cyclin G Associated Kinase (GAK) with Broad-Spectrum Antiviral Activity” (J Med Chem, 2018).
≈ marks a conversion by molar mass, not a printed value. Calls of active or inactive are those of the source. The rule behind the calls is not given here.

Legend:
[1] = Apparent permeability cross basolateral to apical side in MDCK-MDR1 cells at 5 uM after 90 mins by LC-MS/MS analysis; type: ADME, cell-based, Canis lupus familiaris; conditions: dog, mdck-mdr1, 1.5 h
[2] = Apparent permeability cross apical to basolateral side in MDCK-MDR1 cells at 5 uM after 90 mins by LC-MS/MS analysis; type: ADME, cell-based, Canis lupus familiaris; conditions: dog, mdck-mdr1, 1.5 h
[3] = tested on: Huh-7; experiment: Cytotoxicity against human HuH7 cells after 48 hrs by Alamar Blue assay; type: cell-based; conditions: huh-7, 48 h
[4] = Aqueous solubility in PBS buffer at pH 7.4 at 100 uM after 1 hr by LC-MS/MS analysis; type: physicochemical; conditions: pH 7.4, 1 h
[5] = tested on: Dengue virus; experiment: Antiviral activity against Dengue virus infected in doxycycline-inducible GAK (unkown origin) transfected TREx293 cells up to 20 uM after 72 hrs by luciferase reporter gene assay; type: functional, organism-based
[6] = tested on: dengue virus type 2; experiment: Antiviral activity against DENV2 New Guinea C infected in human HuH7 cells after 48 hrs by luciferase reporter gene assay; type: functional, organism-based; conditions: Huh-7, 48 h
[7] = tested on: dengue virus type 2; experiment: Antiviral activity against DENV2 16881 infected in human MDDC after 72 hrs by plaque assay; type: functional, organism-based; conditions: Dengue virus, 16881, 72 h
[8] = Cytotoxicity against human MDDC cells after 72 hrs by Alamar Blue assay; type: cell-based
[9] = tested on: Ebolavirus; experiment: Antiviral activity against Ebolavirus infected in human HuH7 cells after 48 hrs by immunofluorescence assay; type: functional, cell-based; conditions: for EC90: Orthoebolavirus, Huh-7, 48 h
[10] = tested on: Huh-7; experiment: Cytotoxicity against human HuH7 cells after 48 hrs by CellTiter-Glo assay; type: cell-based; conditions: huh-7, 48 h
[11] = tested on: Chikungunya virus; experiment: Antiviral activity against Chikungunya virus AF15561 infected in African green monkey Vero cells preincubated for 48 hrs followed by viral infection measured after 48 hrs by plaque assay; type: functional, organism-based
[12] = target: Tyrosine-protein kinase ABL1 (Homo sapiens) (UniProt P00519); experiment: Inhibition of wild-type human non-phosphorylated ABL1 (S229 to K512 residues) expressed in mammalian expression system at 10 uM by ATP-site competition binding assay based KinomeScan assay relative to control
[13] = target: T1, Aurora kinase C (Homo sapiens) (UniProt Q9UQB9); experiment: Inhibition of wild-type human full length AURKC (M1 to S275 residues) expressed in bacterial expression system at 10 uM by ATP-site competition binding assay based KinomeScan assay relative to control
T1 sequence (whole entry): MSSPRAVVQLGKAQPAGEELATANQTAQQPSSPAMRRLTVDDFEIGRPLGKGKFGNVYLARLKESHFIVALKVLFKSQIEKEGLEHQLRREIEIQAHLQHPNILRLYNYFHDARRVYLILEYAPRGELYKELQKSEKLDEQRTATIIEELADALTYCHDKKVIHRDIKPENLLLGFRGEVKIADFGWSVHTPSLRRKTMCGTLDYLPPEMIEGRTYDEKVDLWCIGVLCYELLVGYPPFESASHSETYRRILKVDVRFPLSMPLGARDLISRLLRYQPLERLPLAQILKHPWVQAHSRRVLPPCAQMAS

[14] = target: Ephrin type-A receptor 7 (Homo sapiens) (UniProt Q15375); experiment: Inhibition of wild-type human partial length EPHA7 (Y608 to S912 residues) expressed in bacterial expression system at 10 uM by ATP-site competition binding assay based KinomeScan assay relative to control
[15] = target: Receptor-type tyrosine-protein kinase FLT3 (Homo sapiens) (UniProt P36888); experiment: Inhibition of wild-type human partial length FLT3 (V592 to Y969 residues) expressed in bacterial expression system at 10 uM by ATP-site competition binding assay based KinomeScan assay relative to control
[16] = target: Mast/stem cell growth factor receptor Kit (Homo sapiens, UniProt P10721); experiment: Inhibition of wild-type human partial length KIT (I571 to D952 residues) expressed in bacterial expression system at 10 uM by ATP-site competition binding assay based KinomeScan assay relative to control
[17] = target: T2, Dual specificity mitogen-activated protein kinase kinase 5 (Homo sapiens) (UniProt Q13163); experiment: Inhibition of wild-type human partial length MAP2K5 (L98 to P448 residues) expressed in mammalian expression system at 10 uM by ATP-site competition binding assay based KinomeScan assay relative to control
T2 sequence (whole entry): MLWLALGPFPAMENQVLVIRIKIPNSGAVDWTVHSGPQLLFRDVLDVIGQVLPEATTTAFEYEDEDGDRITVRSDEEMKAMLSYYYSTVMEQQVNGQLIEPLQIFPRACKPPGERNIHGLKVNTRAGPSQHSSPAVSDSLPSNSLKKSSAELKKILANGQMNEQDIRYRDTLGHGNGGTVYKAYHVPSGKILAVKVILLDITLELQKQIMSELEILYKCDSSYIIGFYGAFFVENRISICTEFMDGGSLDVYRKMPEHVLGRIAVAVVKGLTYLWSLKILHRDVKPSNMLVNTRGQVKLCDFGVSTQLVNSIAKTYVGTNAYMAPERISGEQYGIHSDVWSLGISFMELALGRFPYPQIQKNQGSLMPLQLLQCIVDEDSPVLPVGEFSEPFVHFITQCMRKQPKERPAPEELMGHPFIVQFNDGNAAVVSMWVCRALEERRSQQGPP

[18] = target: Mitogen-activated protein kinase 14 (Homo sapiens) (UniProt Q16539); experiment: Inhibition of wild-type human full length MAPK14 (M1 to S360 residues) expressed in bacterial expression system at 10 uM by ATP-site competition binding assay based KinomeScan assay relative to control
[19] = target: Platelet-derived growth factor receptor beta (Homo sapiens) (UniProt P09619); experiment: Inhibition of wild-type human partial length PDGFRB (V582 to Y1009 residues) expressed in bacterial expression system at 10 uM by ATP-site competition binding assay based KinomeScan assay relative to control
[20] = target: T3, Cyclin-G-associated kinase (Homo sapiens, UniProt O14976)
T3 sequence (O14976 whole entry): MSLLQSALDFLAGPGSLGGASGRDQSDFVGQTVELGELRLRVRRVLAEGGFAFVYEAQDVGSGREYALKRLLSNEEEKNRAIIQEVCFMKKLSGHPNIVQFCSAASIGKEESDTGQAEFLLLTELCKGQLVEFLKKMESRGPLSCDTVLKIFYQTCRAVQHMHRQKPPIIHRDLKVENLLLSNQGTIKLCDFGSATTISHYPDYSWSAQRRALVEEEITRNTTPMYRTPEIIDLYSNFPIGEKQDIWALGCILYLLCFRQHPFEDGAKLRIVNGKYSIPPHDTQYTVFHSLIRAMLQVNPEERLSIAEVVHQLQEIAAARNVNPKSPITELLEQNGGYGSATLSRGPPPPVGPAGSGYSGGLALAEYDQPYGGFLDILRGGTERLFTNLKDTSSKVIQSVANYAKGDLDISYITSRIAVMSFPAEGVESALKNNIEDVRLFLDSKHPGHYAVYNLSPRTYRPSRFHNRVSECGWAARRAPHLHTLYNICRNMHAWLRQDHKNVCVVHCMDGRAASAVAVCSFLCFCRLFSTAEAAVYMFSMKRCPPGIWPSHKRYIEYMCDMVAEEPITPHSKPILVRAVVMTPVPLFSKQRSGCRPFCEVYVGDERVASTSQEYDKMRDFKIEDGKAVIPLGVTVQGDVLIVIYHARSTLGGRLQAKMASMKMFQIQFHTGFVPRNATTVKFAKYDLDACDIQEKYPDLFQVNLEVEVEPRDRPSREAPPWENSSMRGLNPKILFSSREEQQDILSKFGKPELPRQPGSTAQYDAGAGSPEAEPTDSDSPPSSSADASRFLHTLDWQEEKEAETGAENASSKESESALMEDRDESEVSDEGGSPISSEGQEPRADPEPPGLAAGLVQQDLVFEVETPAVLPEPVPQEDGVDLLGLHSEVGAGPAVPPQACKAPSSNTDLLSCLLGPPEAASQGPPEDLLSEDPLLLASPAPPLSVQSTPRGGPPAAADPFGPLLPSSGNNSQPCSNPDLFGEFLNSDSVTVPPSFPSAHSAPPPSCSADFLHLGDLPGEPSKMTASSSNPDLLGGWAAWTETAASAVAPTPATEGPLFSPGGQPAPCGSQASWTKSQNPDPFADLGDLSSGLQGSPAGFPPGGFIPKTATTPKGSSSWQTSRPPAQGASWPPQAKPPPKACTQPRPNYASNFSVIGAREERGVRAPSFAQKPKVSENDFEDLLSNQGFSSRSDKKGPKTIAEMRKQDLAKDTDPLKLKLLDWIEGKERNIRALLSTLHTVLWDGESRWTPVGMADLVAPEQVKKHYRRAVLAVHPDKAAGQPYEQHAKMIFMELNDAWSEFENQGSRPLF

Chain of Ephrin type-A receptor 7 (Homo sapiens) (Q15375 28-998 limits assumed): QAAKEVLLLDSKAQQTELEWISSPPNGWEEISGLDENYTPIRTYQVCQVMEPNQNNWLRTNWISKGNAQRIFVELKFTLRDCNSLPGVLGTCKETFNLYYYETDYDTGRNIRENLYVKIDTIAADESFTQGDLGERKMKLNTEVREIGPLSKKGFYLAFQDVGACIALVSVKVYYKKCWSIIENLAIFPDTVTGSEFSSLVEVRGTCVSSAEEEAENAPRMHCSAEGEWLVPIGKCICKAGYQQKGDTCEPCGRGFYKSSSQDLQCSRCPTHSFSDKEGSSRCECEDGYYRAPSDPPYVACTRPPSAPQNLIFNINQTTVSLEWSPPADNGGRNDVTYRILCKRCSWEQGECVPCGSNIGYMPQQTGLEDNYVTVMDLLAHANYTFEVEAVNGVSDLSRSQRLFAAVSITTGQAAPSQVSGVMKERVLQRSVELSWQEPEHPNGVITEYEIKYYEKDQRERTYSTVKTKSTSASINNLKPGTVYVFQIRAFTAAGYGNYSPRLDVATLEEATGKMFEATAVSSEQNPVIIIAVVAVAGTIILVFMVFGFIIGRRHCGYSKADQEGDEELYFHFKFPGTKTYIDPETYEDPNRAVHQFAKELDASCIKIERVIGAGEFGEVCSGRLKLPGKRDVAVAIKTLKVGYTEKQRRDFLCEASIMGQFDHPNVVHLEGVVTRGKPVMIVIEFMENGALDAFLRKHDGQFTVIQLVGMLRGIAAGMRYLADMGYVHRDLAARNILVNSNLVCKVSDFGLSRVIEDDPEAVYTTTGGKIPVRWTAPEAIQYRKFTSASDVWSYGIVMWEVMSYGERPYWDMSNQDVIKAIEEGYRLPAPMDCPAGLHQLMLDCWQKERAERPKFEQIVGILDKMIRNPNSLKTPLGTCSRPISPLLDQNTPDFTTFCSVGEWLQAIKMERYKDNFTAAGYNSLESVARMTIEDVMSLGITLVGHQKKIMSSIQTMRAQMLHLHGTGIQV
Chain of Platelet-derived growth factor receptor beta (Homo sapiens) (P09619 whole entry, the tested form may be a part): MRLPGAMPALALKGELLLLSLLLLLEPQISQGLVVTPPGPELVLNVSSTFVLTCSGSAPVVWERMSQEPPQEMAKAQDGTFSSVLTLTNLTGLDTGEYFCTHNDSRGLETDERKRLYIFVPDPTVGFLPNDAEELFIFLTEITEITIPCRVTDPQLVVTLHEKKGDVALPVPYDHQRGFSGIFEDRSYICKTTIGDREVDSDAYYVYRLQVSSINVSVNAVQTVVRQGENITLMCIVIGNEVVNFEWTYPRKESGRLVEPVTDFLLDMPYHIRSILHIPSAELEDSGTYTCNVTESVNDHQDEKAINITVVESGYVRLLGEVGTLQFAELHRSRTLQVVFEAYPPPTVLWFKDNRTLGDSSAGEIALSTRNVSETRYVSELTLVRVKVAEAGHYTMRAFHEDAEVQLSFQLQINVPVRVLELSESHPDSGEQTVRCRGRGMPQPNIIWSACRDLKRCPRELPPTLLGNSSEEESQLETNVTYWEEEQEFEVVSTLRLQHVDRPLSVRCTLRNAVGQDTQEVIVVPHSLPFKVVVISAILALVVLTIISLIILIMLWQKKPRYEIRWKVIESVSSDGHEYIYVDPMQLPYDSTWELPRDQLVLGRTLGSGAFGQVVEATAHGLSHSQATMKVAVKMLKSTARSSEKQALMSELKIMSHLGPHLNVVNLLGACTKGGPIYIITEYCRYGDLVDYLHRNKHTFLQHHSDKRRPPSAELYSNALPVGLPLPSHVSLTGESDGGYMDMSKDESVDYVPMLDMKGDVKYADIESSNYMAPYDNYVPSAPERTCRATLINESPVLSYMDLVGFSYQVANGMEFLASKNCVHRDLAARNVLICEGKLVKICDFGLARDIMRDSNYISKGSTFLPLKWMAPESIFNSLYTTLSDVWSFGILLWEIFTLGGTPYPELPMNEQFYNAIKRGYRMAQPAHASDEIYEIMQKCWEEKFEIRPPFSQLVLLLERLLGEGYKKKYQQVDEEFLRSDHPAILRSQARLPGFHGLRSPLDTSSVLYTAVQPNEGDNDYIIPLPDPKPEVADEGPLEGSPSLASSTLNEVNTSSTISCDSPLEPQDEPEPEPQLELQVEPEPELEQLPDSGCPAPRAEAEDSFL
Chain of Tyrosine-protein kinase ABL1 (Homo sapiens) (P00519 whole entry, the tested form may be a part): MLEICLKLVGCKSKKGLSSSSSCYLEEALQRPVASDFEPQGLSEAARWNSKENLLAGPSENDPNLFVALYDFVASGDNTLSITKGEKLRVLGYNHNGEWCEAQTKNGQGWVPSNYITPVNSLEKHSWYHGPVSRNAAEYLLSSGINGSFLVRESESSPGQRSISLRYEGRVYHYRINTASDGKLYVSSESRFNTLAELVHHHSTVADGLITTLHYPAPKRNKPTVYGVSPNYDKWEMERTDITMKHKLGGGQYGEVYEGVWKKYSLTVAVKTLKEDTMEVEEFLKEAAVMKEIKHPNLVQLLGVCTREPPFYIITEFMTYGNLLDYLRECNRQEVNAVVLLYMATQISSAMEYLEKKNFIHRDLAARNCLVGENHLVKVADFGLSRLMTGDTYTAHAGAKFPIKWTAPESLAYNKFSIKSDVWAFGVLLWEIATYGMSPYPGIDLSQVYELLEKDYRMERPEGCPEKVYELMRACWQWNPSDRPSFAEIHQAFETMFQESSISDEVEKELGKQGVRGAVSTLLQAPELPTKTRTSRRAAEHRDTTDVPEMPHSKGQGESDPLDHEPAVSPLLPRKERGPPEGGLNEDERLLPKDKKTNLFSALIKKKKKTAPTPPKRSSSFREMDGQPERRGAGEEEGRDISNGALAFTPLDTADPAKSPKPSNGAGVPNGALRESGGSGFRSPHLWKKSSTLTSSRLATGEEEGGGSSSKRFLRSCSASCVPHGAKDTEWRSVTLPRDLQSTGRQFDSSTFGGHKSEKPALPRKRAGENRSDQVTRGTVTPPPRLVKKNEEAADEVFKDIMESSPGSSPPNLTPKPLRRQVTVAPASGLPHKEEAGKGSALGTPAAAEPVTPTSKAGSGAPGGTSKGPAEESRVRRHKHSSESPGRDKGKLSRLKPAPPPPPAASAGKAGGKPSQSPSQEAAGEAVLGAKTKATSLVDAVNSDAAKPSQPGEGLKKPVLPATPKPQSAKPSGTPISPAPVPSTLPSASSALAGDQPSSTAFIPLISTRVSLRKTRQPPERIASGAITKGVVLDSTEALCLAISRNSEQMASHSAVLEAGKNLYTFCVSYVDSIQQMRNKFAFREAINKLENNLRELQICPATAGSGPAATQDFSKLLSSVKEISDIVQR
Chain of Mitogen-activated protein kinase 14 (Homo sapiens) (Q16539 whole entry, the tested form may be a part): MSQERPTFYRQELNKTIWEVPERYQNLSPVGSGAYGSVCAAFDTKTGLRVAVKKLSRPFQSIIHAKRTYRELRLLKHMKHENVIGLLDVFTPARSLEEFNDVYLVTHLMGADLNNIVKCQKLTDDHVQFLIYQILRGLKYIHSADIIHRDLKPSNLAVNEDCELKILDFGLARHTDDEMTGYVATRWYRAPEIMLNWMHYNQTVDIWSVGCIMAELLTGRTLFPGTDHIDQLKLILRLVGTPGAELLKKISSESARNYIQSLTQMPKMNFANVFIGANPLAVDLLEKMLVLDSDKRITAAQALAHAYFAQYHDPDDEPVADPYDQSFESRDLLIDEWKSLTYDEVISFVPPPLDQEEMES
Chain of Mast/stem cell growth factor receptor Kit (P10721 whole entry, the tested form may be a part): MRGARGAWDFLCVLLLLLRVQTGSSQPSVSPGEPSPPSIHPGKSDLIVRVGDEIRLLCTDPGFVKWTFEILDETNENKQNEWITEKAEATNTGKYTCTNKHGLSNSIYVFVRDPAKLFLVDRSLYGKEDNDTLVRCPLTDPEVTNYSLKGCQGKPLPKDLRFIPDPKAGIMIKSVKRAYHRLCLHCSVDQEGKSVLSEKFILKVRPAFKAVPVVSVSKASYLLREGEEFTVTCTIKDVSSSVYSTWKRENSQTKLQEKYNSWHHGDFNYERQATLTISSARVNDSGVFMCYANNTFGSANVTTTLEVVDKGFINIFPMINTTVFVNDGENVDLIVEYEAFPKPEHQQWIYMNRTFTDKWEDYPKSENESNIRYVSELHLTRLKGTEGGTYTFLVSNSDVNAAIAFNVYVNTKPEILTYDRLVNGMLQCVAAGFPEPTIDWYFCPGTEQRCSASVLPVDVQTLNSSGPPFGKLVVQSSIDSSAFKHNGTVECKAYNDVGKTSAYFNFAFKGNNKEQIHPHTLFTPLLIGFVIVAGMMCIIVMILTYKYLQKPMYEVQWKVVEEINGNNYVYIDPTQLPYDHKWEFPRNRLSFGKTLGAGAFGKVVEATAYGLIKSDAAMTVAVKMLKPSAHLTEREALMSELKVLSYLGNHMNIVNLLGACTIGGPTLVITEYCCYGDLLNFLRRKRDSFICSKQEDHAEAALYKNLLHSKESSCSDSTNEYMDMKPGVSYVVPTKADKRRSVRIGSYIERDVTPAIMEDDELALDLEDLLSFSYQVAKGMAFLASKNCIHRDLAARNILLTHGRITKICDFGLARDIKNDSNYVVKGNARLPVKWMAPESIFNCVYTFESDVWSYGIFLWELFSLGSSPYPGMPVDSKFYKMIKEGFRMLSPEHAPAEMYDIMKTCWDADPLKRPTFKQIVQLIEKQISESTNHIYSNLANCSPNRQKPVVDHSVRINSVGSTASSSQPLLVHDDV

`COc1cc(-c2cnc3c(N4CCNC(=O)C4)snc3c2)ccc1N` gave a Papp [1] of 43.48 ×10⁻⁶ cm/s, a Papp [2] of 30.32 ×10⁻⁶ cm/s and a CC50 [3] of over 10 µM. The solubility [4] was 51.3 µM (≈ 18.2 µg/mL).
For `COc1cc(-c2cnc3c(N4CCC(C#N)CC4)snc3c2)ccc1N`, the CC50 [3] was 2.09 µM.
`COc1cc(-c2cnc3c(N4CCC(N)CC4)snc3c2)ccc1N` showed a CC50 [3] of over 10 µM.
With `COc1cc(-c2cnc3c(N4CCCOCC4)snc3c2)ccc1N` the CC50 [3] was over 10 µM.
With `COc1cc(-c2cnc3c(N4C[C@@H](C)O[C@@H](C)C4)snc3c2)ccc1N` the Papp [1] was 18.28 ×10⁻⁶ cm/s, the Papp [2] was 31.33 ×10⁻⁶ cm/s and the Activity [5] was “inactive”. The EC50 [6] was 820 nM, the EC90 [6] was 1760 nM and the CC50 [3] was over 25 µM. It also gave an EC50 [7] of 3.54 µM, a CC50 [8] of over 20 µM and an EC90 [9] of 7.73 µM. The CC50 [10] was over 10 µM, the Activity [11] was “Dose-dependent effect” and the inhibition [12] was over 90%. For the same compound, the inhibition [13] was over 90%, the inhibition [14] was over 90% and the inhibition [15] was over 90%. The inhibition [16] was over 90%, the inhibition [17] was over 90% and the inhibition [18] was over 90%. It also gave an inhibition [19] of over 90%, a solubility [4] of 0.52 µM (≈ 0.193 µg/mL) and a Kd [20] of 89 nM.
With `COc1cc(-c2cnc3c(N4CCC(C(N)=O)CC4)snc3c2)ccc1N` the CC50 [3] was over 10 µM.
Compound `COCCc1ccc(OCC(O)CNC(C)C)cc1` (stereo not drawn) [METOPROLOL] has a Papp [1] of 30.66 ×10⁻⁶ cm/s and a Papp [2] of 39.29 ×10⁻⁶ cm/s.
Compound `COc1cc(-c2cnc3c(N4CCC(F)(F)CC4)snc3c2)ccc1N` has a CC50 [3] of over 10 µM.
Compound `COc1cc(-c2cnc3c(N4CCCC(C(N)=O)C4)snc3c2)ccc1N` (stereo not drawn) has a CC50 [3] of over 10 µM.
`COc1cc(-c2cnc3c(NC4CCOCC4)snc3c2)ccc1N` showed a CC50 [3] of over 20 µM.
For `COc1cc(-c2cnc3c(N4CC5CCC(C4)O5)snc3c2)ccc1N`, the CC50 [3] was over 10 µM.
`COc1cc(-c2cnc3c(N4CC5(COC5)C4)snc3c2)ccc1N` showed an EC50 [6] of 7120 nM, an EC90 [6] of over 10000 nM and a CC50 [3] of over 10 µM. The Kd [20] was 170 nM.
With `COc1cc(-c2cnc3c(N4CCS(=O)(=O)CC4)snc3c2)ccc1N` the CC50 [3] was over 10 µM.
In the case of `COc1cc(-c2cnc3c(N4CCOC[C@H]4C)snc3c2)ccc1N`, the CC50 [3] is reported as over 10 µM.
For `COc1cc(-c2cnc3c(N4CCOC[C@@H]4C)snc3c2)ccc1N`, the CC50 [3] was 6.32 µM.
In the case of `COc1cc(-c2cnc3c(N4CCCCC4)snc3c2)ccc1N`, the CC50 [3] is reported as over 10 µM.
With `CC(C)NCC(O)COc1cccc2ccccc12` (stereo not drawn) [PROPRANOLOL] the solubility [4] was 117 µM (≈ 30.3 µg/mL).
For `COc1cc(-c2cnc3c(N4CCO[C@@H](C)C4)snc3c2)ccc1N`, the CC50 [3] was over 25 µM and the Activity [9] was “Dose-dependent effect”.
In the case of `COc1cc(-c2cnc3c(N4CCO[C@H](C)C4)snc3c2)ccc1N`, the CC50 [3] is reported as 20.7 µM, the Activity [9] is reported as “Dose-dependent effect” and the CC50 [10] is reported as over 10 µM.
In the case of `COc1cc(-c2cnc3c(N4CCOC(C)C4)snc3c2)ccc1N` (racemic), the CC50 [3] is reported as 21.5 µM, the Activity [9] is reported as “Dose-dependent effect” and the CC50 [10] is reported as 9.4 µM.
Work on `COc1cc(-c2cnc3c(N4C[C@@H](C)O[C@H](C)C4)snc3c2)ccc1N` (relative stereo) yielded an EC50 [6] of 700 nM, an EC90 [6] of 2150 nM and a CC50 [3] of over 10 µM.
With `COc1cc(-c2cnc3c(N4CCOCC4)snc3c2)ccc1N` the Papp [1] was 30.8 ×10⁻⁶ cm/s, the Papp [2] was 45.45 ×10⁻⁶ cm/s and the EC50 [6] was 1840 nM. For the same compound, the EC90 [6] was 8050 nM, the EC90 [9] was 21.9 µM and the CC50 [10] was 11 µM. It also gave a solubility [4] of 3.44 µM (≈ 1.18 µg/mL).
Compound `COc1cc(-c2cnc3c(N4CCOC(C)(C)C4)snc3c2)ccc1N` has a CC50 [3] of 4.14 µM.
